Here are results for one compound from patent US9809560B2, “Ligands and methods for labeling biomolecules in vivo” (Albert Einstein College of Medicine, Inc., priority 2010, dated 2017).

A short description of data set [1]: Fluorogenic kinetic assay of CuAAC of 3-azido-7-hydroxy-coumarin and propargyl alcohol. The settings on record: 75 μM CuSO4 premixed with ligand, [ligand]:[copper] 2:1 to 6:1; within 15 min. As for the experimental part: FIG. 1A-1C. Copper(I)-catalyzed azide-alkyne cycloaddition (CuAAC) is accelerated by Cu(I)-stabilizing ligands. (A) CuAAC of azides and terminal alkynes to form 1,4-disubstituted 1,2,3-triazoles. (B) Structures of CuAAC-accelerating ligands. (C) Conversion-time profiles of CuAAC in the presence/absence of accelerating ligands. Reaction conditions: propargyl alcohol (50 μM), 3-azido-7-hydroxy-coumarin (100 μM), CuSO4 (75 μM), 0.1 M potassium phosphate buffer (pH 7.0)/DMSO 95:5, sodium ascorbate ([…]), rt. Error bars represent the standard deviation of three replicate experiments.
Protocol for Kinetic Measurement of CuAAC of 3-azido-7-hydroxy-coumarin and Propargyl Alcohol […]
Procedure for 200 μL reactions: In a 96-well fluorescence plate, add the reagents in the following order: (1) 40 μL of 500 mM phosphate buffer pH 7.0; (2) 1.0 μL 10 mM propargyl alcohol; (3) 10 μL of DMSO; (4) 6 μL of premixed CuSO4 and ligand ([Cu]=2.5 mM); (5) 1.0 μL 20 mM coumarin-N3; (6) 20 μL of 25 mM sodium ascorbate; (7) Read fluorescence (λex=404 nm, λem=477 nm, RFU) on the Synergy plate reader.

The next data set concerns zebrafish embryos. As to the kind of experiment: Imaging of fucosylated glycans in zebrafish embryos microinjected with GDP-FucAl. The settings on record: among 120 embryos microinjected with nucleotide sugar analogues and treated with click reagents, through four days post click reaction. The class given is in vivo. The procedure:
Zebrafish embryos at the one-cell or two-cell stage were microinjected in the yolk with 1 nL of a 20 mM solution of GDP-FucAl (or GDP-fucose) and either rhodamine-dextran (5% w/v) or phenol red (0.1% w/v) in 0.2 M KCl as a tracer. The embryos were allowed to develop to 5 hpf, at which point they were manually dechorionated. The dechorionated embryos were cultured in E3 embryo medium at 28° C. for an additional 3 h before transferring to 1% agarose-coated 96-well plates containing 92 μL embryo medium using a fire-polished wide-bore Pasteur pipette. Alexa Fluor-488 azide (100 μM from a 1.75 mM stock in H2O) was added to each well, followed by BTTES-CuSO4 or BTTA-CuSO4 6:1 complex ([Cu]=50 μM from 2.5 mM stock). […] After mounting on a slide or 50 mm glass bottom dishes (Matek) in 1.5-3% methyl cellulose and E3 medium, the embryos were ready for imaging by confocal microscopy.
To image fucosylated glycans in zebrafish embryos, GDP-FucAl was synthesized chemoenzymatically and microinjected embryos at the one-cell stage with 20 pmol of GDP-FucAl (FIG. 4B). […] Robust labeling of the treated embryos was achieved within 1-3 min reaction (FIG. 4C), and only background fluorescence was detected for control embryos microinjected with GDP-fucose (FIG. 10). […]

In the case of `CC(C)(C)n1cc(CN(Cc2cn(CCOS(=O)(=O)O)nn2)Cc2cn(C(C)(C)C)nn2)nn1` [BTTES], the cycloaddition product yield in data set [1] is above 50%. Besides, in the data set with zebrafish embryos, the “embryos with minor developmental defects” value is “less than twelve embryos exhibited minor developmental defects”.
